Earlier results as cited in article PMC3649970, “A Unique Spumavirus Gag N-terminal Domain with Functional Properties of Orthoretroviral Matrix and Capsid” (PLoS Pathogens, 2013).

Tested on: equivalent Gag-NtD (FFV)
Settings: FFV Env leader peptide with FFV Gag-NtD; ref [29]; cited from earlier work
From the text: In the structure, residues 7–16 of the Env leader peptide comprise the amphipathic α-helix bound in the Env binding site of the Gag-NtD and residues 1–6 provide intramolecular hydrogen bonding that stabilises the helical conformation. […] Therefore, the hydrophobic interface observed in the structure likely represents the complete interaction between the leader peptide and FV Gag. The apolar ch ...

Substance: residues 1–30 of the FFV Env leader peptide: residues 1–30 of the FFV Env leader peptide (MEQEHVMTLKEWMEWNAHKQLQKLQSTHPE; leader peptide; UniProt O56861 1-30, looked up, fragment)
- equilibrium association constant: 65000 M⁻¹
